Patent USRE39616E1, “Aminoindan derivatives” (priority 1996, dated 2007)
Where two headings read alike, the source gives them in different places.

Tests used:
mice = conditions: mouse, in vivo
Experimental: Therapeutic Ratio was calculated as LD50 divided by ED50 of ex vivo acetylcholine esterase inhibition.

MAO-B [1] = molecular target: T1, MAO-B (Rattus norvegicus, UniProt P19643); assay: Inhibition of MAO activity in vitro, PEA as substrate; format: biochemical; parameters: The MAO enzyme source was a homogenate of rat brain in 0.3M sucrose; from tissue; host or cells: rat brain homogenate, 600 g supernatant
T1 sequence (P19643 1-520): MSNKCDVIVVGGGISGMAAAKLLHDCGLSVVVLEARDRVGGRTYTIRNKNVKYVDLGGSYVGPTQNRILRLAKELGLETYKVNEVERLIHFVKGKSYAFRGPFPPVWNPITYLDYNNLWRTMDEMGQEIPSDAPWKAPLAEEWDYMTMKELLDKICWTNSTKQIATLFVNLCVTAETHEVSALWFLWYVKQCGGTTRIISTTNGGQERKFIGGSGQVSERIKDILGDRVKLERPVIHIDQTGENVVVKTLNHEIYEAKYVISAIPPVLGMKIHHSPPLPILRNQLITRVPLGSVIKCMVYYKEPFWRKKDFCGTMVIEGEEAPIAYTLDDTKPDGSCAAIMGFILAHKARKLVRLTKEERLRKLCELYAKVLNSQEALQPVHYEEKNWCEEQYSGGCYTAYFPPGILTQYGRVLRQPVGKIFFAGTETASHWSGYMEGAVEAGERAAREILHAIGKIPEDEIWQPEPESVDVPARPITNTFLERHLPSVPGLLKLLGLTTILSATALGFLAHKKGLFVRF
Experimental: (§1) Substrate concentrations used were 50 μM (PEA) and 1 mM (5-HT).

MAO-A [2] = molecular target: T2, MAO-A (Mus musculus, UniProt Q64133); assay: Inhibition of MAO activity ex vivo (brain); format: in vivo, mice; conditions: mice, brain tissue
T2 construct: from tissue; host or cells: mouse brain
T2 sequence (Q64133 1-526): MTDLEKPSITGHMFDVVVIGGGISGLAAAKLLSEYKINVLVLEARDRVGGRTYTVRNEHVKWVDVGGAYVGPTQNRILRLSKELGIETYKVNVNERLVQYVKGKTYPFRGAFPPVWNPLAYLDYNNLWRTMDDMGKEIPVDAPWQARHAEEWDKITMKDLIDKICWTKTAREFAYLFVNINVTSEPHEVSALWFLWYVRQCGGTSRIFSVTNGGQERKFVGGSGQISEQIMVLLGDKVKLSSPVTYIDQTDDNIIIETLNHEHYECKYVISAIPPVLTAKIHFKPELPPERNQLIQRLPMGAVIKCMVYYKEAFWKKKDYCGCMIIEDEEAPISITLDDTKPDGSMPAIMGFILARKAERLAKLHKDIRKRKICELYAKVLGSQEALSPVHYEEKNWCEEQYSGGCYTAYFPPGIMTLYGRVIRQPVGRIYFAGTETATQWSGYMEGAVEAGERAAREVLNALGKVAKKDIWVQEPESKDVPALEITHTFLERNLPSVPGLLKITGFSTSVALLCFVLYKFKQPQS
Experimental: as §1
(§2) Male Sabra mice, weighing 45-50 g were injected with test compound solutions (prepared in 0.9% saline). Each dose was administered to two or three mice. The mice were sacrificed two hours after drug administration or at a time corresponding to the peak AChE inhibition time (see Table 11). The brain and liver were rapidly dissected and stored in appropriate vials on ice. The tissues were weighed, diluted to ½ in sucrose 0.3M and stored at −20° C. before performance of the MAO assay described above. The results given in Table 11 relate to measurements made on brain tissue only.

MAO-B [3] = molecular target: T3, MAO-B (Mus musculus, UniProt Q8BW75); assay: Inhibition of MAO activity ex vivo (brain); format: in vivo, mice; conditions: mice, brain tissue
T3 construct: from tissue; host or cells: mouse brain
T3 sequence (Q8BW75 1-520): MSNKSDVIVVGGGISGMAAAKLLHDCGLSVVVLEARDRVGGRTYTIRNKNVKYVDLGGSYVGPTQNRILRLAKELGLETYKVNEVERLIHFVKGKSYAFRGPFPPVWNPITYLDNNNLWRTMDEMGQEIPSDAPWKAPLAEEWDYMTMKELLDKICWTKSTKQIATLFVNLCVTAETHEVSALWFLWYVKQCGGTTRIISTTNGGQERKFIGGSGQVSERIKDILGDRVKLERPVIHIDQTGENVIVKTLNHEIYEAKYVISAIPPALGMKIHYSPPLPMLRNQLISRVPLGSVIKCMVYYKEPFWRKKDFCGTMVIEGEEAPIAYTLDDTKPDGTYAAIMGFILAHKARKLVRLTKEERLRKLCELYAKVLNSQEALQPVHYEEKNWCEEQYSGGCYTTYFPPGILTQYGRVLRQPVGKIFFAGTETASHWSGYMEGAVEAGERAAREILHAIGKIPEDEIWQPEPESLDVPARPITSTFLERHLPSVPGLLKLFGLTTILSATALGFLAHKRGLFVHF
Experimental: as §1, §2

whole brain AChE = molecular target: T4, whole brain AChE (Mus musculus, UniProt P21836); conditions: for AChE Inhibition Ex vivo ED50 (AC): mice, whole brain, at peak of activity
T4 sequence (P21836 32-614): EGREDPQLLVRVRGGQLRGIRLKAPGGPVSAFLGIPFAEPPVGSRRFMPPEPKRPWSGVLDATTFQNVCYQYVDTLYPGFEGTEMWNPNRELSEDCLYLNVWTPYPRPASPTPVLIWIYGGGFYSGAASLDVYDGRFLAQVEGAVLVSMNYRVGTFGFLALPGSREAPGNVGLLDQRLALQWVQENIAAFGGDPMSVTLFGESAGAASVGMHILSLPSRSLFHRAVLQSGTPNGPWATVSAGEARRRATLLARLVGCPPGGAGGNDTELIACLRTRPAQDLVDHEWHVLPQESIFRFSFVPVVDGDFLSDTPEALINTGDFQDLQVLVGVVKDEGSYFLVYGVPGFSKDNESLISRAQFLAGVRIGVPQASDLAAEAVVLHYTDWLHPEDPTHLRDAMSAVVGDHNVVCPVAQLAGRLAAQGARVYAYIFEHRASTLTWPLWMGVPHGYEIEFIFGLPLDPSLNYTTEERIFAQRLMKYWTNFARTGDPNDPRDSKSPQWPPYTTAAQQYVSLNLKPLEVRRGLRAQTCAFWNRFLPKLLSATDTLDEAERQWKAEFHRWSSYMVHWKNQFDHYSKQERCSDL
Experimental: Test drugs or saline were administered sub-cutaneously to male mice (Sabra strain, 28-35 g). […] The mice were sacrificed 15, 30, 50, 70, 90, 120 or 180 minutes after drug administration, the brains rapidly removed (minus cerebellum), weighed and homogenized in 0.1 M phosphate buffer, pH 8.0, containing Triton (1 mg/100 g tissue) and centrifuged to remove cell debris. Aliquots (25 μl) of the supernatant were then incubated with acetylthiocholine and DTNB. AChE activity was measured as described above. The % inhibition of whole brain AChE by each dose of drug was calculated by comparison with enzyme activity from 3 saline treated control mice run at the same time.

[4] = molecular target: T5, Human erythrocyte acetylcholinesterase (Homo sapiens, UniProt P22303); assay: biochemical; format: biochemical; conditions: AChE Inhibition In vitro IC50
T5 construct: Human erythrocyte acetylcholinesterase (type XIII, Sigma Israel); purchased Sigma Israel type XIII; host or cells: human erythrocytes
T5 sequence (P22303 32-617 isoform P22303-2 limits assumed): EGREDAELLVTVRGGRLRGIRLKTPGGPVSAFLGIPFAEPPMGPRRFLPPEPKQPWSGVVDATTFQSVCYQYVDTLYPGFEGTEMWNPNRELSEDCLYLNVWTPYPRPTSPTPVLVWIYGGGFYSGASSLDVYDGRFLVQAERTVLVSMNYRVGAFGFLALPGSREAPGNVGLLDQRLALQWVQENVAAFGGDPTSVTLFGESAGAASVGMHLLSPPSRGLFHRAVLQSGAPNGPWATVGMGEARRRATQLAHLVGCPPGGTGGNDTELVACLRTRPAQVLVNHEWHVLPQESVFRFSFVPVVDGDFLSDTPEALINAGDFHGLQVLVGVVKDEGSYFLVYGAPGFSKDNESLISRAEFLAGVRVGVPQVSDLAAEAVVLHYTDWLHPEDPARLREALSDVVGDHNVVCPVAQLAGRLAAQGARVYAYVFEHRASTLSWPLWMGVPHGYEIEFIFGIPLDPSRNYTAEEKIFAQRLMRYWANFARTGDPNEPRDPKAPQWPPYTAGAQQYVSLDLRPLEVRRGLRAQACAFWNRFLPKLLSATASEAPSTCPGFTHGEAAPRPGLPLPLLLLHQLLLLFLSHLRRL
Experimental: Human erythrocyte acetylcholinesterase (type XIII, Sigma Israel), was prepared in a stock solution of 1 U/ml, containing Triton (1%) and bovine serum albumin (0.05%) in phosphate buffer (pH 8). The enzyme (0.05U) was incubated with 3-5 different concentrations of test compound (in triplicate) for periods of from 15 to 60 minutes at 37° C. […] The percentage inhibition of AChE by each concentration of drug is calculated by comparison with that of enzyme in the absence of drug.

MAO-A [5] = molecular target: T6, MAO-A (Rattus norvegicus, UniProt P21396); assay: Inhibition of MAO activity in vitro, 5-HT as substrate; format: biochemical; parameters: The MAO enzyme source was a homogenate of rat brain in 0.3M sucrose; from tissue; host or cells: rat brain homogenate, 600 g supernatant; conditions: 5-HT substrate
T6 sequence (P21396 1-526): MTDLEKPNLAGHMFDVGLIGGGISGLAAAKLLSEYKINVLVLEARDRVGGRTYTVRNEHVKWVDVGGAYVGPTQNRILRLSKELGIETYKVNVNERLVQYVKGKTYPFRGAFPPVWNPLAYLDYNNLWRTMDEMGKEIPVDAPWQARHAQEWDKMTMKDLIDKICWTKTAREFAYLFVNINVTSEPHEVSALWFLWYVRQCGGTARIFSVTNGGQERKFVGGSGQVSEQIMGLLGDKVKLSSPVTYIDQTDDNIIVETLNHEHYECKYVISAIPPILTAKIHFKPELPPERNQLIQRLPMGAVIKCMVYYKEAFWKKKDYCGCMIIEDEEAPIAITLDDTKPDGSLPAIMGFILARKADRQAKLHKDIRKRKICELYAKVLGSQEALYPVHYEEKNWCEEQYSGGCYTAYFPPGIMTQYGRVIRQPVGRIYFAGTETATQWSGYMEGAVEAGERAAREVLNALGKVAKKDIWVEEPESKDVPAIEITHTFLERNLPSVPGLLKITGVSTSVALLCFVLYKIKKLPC
Experimental: as §1

SMILES	Acute Toxicity LD50 (LD) (mice)	Therapeutic Ratio LD/AC (mice)	IC50 (MAO-B [1]; rat brain homogenate, read-out: MAO-B Inhibition In vitro IC50)	MAO-A Inhibition Ex vivo ED50 (MAO-A [2])	MAO-B Inhibition Ex vivo ED50 (MAO-B [3])	AChE Inhibition Ex vivo ED50 (AC) (whole brain AChE)	AChE Inhibition Time to peak activity t (whole brain AChE; mouse, in vivo)	IC50 [4]	IC50 (MAO-A [5]; rat brain homogenate, read-out: MAO-A Inhibition In vitro IC50)	IC50 (MAO-B [1]; MAO-B Inhibition In vitro IC50, rat brain homogenate)	IC50 (MAO-A [5]; MAO-A Inhibition In vitro IC50, rat brain homogenate)
C#CCNC1CCc2ccc(OC(=O)N(C)Cc3ccccc3)cc21 (stereo not shown) [Compound 63]	1300 µmol/kg	9.3	120 µM	>300 µmol/kg	>300 µmol/kg	140 µmol/kg	60 to 90 min	2.5 µM	40 µM		
C#CCNC1CCc2ccc(OC(=O)N(C)CCCCCC)cc21 (stereo not shown) [Compound 36]	>1000 µmol/kg			>100 µmol/kg	>100 µmol/kg	>400 µmol/kg		15 µM		> 1000 µM	> 1000 µM
